Data: US9486507B2, “Pro-coagulant compounds and methods of use thereof” (priority 2011, dated 2016)
“And” between values parts separate entries of the source, which are not always exact repeats. Identical values can stand only once.

Experiments:
Type in all cases: biochemical
FIXa [1] = molecular target: T1, FIXa (Homo sapiens, UniProt P00740); assay: FXa generation assay with human FIXa; parameters: purchased Haematologic Technologies
FIXa [2] = molecular target: T1, FIXa; assay: Heparin accelerated FIXa-AT complex formation assay; parameters: purchased Haematologic Technologies; details: with heparin, 0 min
[3] = test system: canine FVIII-deficient plasma; assay: ROTEM in canine FVIII-deficient plasma; details: canine HemA plasma, lyophilized human platelets, 10 fM lipTF
α-thrombin = α-thrombin (Homo sapiens, UniProt P00734); assay: Fibrin generation assay (thrombin activity); details: compound 5 1 uM; α-thrombin 0 or 0.1 IU/mL
Description: The generation of fibrin was determined by measuring the absorbance at OD405 with the Biotek Synergy 2 multi-detection microplate reader.

[4] = test system: purified recombinant human coagulation factors; assay: Thrombin generation assay using purified hemostatic components
Description: Purified recombinant human coagulation factors V, XI, II, X, IX, VII, VIIa, recombinant tissue factor and antithrombin III (ATIII) were obtained from Haematologic Technologies (Essex Junction, Vt., USA). Lyophilized platelets were from Helena Laboratorires (Beaumont, Tex.); TFPI was from American Diagnostica.

FIXa [5] = molecular target: T1, FIXa; assay: Heparin accelerated FIXa-AT complex formation assay; parameters: purchased Haematologic Technologies; details: for % FIXa-AT complex formation: with heparin
Description: Competition studies between the pro-coagulant peptides and heparin: compounds of the present disclosure were tested in a heparin competition assay in an effort to further map the peptide's binding site on FIXa. FIXa inactivation by antithrombin (AT) was assessed by gel electrophoresis in the presence of heparin and varying procoagulant peptide concentrations. The rate of FIXa-AT complex formation was quantified over a 15 minute time course. […] The samples were incubated at 37° C. in a water bath and 12.5 μL aliquots were removed at each time point (0.5, 2, 5, 10, 15 min) and immediately mixed with 12.5 μL SDS 2× non-reducing sample buffer. The samples were heated at 90° C. for 3 min and loaded onto a 4-20% BioRad gel (20 μL/lane). The gel was run at 300V for 25 min, and the bands were quantified using Quantity One software from BioRad.

T1 sequence (P00740 47-191 limits assumed): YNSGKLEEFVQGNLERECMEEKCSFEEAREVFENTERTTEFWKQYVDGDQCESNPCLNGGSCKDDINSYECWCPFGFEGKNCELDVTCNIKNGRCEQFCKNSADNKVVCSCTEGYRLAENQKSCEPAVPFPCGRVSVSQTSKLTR
T1 sequence (P00740 227-461 limits assumed): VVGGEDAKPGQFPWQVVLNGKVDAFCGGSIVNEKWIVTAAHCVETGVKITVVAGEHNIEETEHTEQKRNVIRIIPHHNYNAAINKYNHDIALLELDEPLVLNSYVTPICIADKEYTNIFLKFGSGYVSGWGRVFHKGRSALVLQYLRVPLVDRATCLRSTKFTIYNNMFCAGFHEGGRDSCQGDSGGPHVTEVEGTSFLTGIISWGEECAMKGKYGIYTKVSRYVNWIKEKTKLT

Substance: rRAPGKLTCLASYCWLFWTGIA [Compound 5]
- Vmax (FIXa [1]; FXa generation assay, 10 nM hFIXa, 100 nM hFX, class symbols): (+++) ((+++)>2)
- increase of FIXa catalytic activity, % of control (FIXa [1]; absence of PL): about 80%
- % FIXa-AT complex formation (FIXa [2]; Compound 5 0.1 μM): 0%
- % FIXa-AT complex formation (FIXa [2]; Compound 5 1 μM): 0%
- % FIXa-AT complex formation (FIXa [2]; Compound 5 10 μM): 0%
- Clotting time ([3]; 0.625 μM): 687 s and 539 s
- α-angle, degrees ([3]; 0.625 μM): 12 degrees
- Clotting time ([3]; 2.5 μM): 346 s and 356 s
- α-angle, degrees ([3]; 2.5 μM): 15; 15 degrees
- Clotting time ([3]; 5 μM): 295 s and 369 s
- α-angle, degrees ([3]; 5 μM): 29 degrees and 28 degrees
- Clotting time ([3]; 10 μM): 286 s and 294 s
- α-angle, degrees ([3]; 10 μM): 58 degrees and 57 degrees
- catalytic activity of thrombin (fibrin generation, OD405) (α-thrombin): did not substantially increase the catalytic activity of thrombin directly
- thrombin generation, FXIa dependence ([4]; compound 5 1 μM, 0, 50% or 100% FXIa (FIG. 8)): dependent on the FXIa concentration
- thrombin generation, FIXa dependence ([4]; compound 5 1 μM, 1%, 10% or 100% (3.1 μg/mL) FIXa (FIG. 7)): dependent on the FIXa concentration
- thrombin generation without FIX/FIXa ([4]; compound 5 1 μM, FVII, FVIIa, TF, FV, FX, FII, ATIII, TFPI, platelets): enhanced thrombin generation in the absence of FIX/FIXa
- thrombin generation, dose dependence ([4]; compound 5 at 1 nM, 10 nM, 100 nM, 1 μM, 2 μM (FIG. 6)): enhances thrombin generation in a dose-dependent manner
- thrombin generation ([4]; compounds 1 μM, FVIII 0.1 or 1 IU/mL (FIG. 5)): induce thrombin generation
- inactivation of FIXa by AT (FIXa [5]; absence of heparin): unaffected
- heparin-catalyzed FIXa-AT complex formation (FIXa [5]; heparin 100 nM, compound 5 0.1, 1, 10 μM): inhibited the FIXa-AT complex formation in a concentration-dependent manner
- % FIXa-AT complex formation (FIXa [5]; Compound 5 0.1 μM, 0.5 min): 57%
- % FIXa-AT complex formation (FIXa [5]; Compound 5 0.1 μM, 2 min): 72%
- % FIXa-AT complex formation (FIXa [5]; Compound 5 0.1 μM, 5 min): 82%
- % FIXa-AT complex formation (FIXa [5]; Compound 5 0.1 μM, 10 min): 82%
- % FIXa-AT complex formation (FIXa [5]; Compound 5 0.1 μM, 15 min): 83%
- % FIXa-AT complex formation (FIXa [5]; Compound 5 1 μM, 0.5 min): 30%
- % FIXa-AT complex formation (FIXa [5]; Compound 5 1 μM, 2 min): 45%
- % FIXa-AT complex formation (FIXa [5]; Compound 5 1 μM, 5 min): 55%
- % FIXa-AT complex formation (FIXa [5]; Compound 5 1 μM, 10 min): 70%
- % FIXa-AT complex formation (FIXa [5]; Compound 5 1 μM, 15 min): 74%
- % FIXa-AT complex formation (FIXa [5]; Compound 5 10 μM, 0.5 min): 18%
- % FIXa-AT complex formation (FIXa [5]; Compound 5 10 μM, 2 min): 28%
- % FIXa-AT complex formation (FIXa [5]; Compound 5 10 μM, 5 min): 41%
- % FIXa-AT complex formation (FIXa [5]; Compound 5 10 μM, 10 min): 54%
- % FIXa-AT complex formation (FIXa [5]; Compound 5 10 μM, 15 min): 62%
